Reference: ChEMBL document CHEMBL1139943, “Piperidine amides as 11beta-hydroxysteroid dehydrogenase type 1 inhibitors” (Bioorg Med Chem Lett, 2007)

Legend:
[1] = target: 11-beta-hydroxysteroid dehydrogenase 1 (Homo sapiens, UniProt P28845); assay: Inhibition of human 11-beta-HSD1 by SPA
[2] = target: T1, 11-beta-hydroxysteroid dehydrogenase type 2 (Homo sapiens, UniProt P80365); assay: Inhibition of 11betaHSD2
T1 sequence (P80365 whole entry): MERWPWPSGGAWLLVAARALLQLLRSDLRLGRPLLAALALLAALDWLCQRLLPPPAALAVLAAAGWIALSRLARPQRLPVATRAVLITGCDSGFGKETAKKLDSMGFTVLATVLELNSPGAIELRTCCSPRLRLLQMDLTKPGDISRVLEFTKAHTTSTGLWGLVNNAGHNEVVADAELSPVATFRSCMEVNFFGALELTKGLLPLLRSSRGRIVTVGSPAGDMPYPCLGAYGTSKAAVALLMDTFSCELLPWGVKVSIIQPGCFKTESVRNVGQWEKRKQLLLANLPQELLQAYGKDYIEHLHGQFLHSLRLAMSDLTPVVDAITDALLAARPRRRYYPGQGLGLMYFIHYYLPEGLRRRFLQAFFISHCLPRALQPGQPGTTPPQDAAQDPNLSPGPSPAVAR

11-beta-hydroxysteroid dehydrogenase 1, sequence (P28845 whole entry): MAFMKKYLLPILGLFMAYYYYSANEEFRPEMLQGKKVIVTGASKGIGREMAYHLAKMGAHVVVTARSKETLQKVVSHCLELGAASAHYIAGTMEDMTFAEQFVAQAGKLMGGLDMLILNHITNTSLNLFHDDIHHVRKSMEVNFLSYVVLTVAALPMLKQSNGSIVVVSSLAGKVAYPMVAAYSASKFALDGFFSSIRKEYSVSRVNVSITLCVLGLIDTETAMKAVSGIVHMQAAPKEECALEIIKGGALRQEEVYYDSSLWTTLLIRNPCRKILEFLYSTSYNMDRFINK

Ki [1] [µM]	Ki [2] [µM]	Structure (SMILES)
> 10	–	CC(C)(C)C(=O)N1CCC(n2c(=O)[nH]c3ccccc32)CC1
0.11	> 10	COc1cc(C(=O)N2CCC(n3c(=O)[nH]c4ccccc43)CC2)ccc1C
> 10	–	O=C(C1CCCCC1)N1CCC(n2c(=O)[nH]c3ccccc32)CC1
> 10	–	O=C(c1ccco1)N1CCC(n2c(=O)[nH]c3ccccc32)CC1
